Tests used:
mutant yeast strain taz1 = experiment: Halos test: respiratory growth of mutant yeast strain taz1 on non-fermentable solid medium; format: cell-based, Saccharomyces cerevisiae; details: 100 nmoles; compared with ebselen 100 nmoles; no halo with DMSO
From the text: C/ Effect (detected by the halos test) of ebselen oxide on the respiratory growth of the mutant yeast strain taz1 on non-fermentable solid medium, in comparison with ebselen (B) and DMSO (D)
As previously described (WO2020/254632), the different mutant yeast strains were spread over the solid respiratory agar-agar based media (containing glycerol or ethanol as the unique carbon source) and exposed to filters on which the compound tested, in particular ebselen (EBS) was deposited. The dishes were then incubated at the temperature indicated (that could be 28° C. or 36° C. depending on the strain used).
More precisely, 0.125 OD of mutant cells with exponential growth were spread homogeneously with sterile glass beads in a square Petri dish (12 cm×12 cm) containing a solid respiratory medium (YPA Ethanol, 1% yeast extract, 0.5% Bacto Peptone, 40 mg/L Adenine, 2% Ethanol for sym1 and taz1; or YPA Glycerol 2% for cox2, fmc1, atp6, shy1 et A29G). […] On each dish, the DMSO (buffer) was used as negative control (upper left-hand filter). The dishes were then incubated at 28° C. (for shy1) or 36° C. (for cox2, sym1, fmc1, atp6 taz1 and A29G) for 4 to 5 days, then photographed. The improvement of the growth was evaluated after a plurality of days of incubation by the appearance of a halo of improved growth around the filter where the active ingredient was deposited.

[1] = test system: fibroblasts of TAZ patients; experiment: Respiratory growth/proliferation of fibroblasts of TAZ patients (SRB, low glucose); format: cell-based, human; details: 96 hours; vs negative control DMSO
Description: EBS was tested for the effect thereof on the respiratory growth of fibroblasts of TAZ patients, as opposed to fibroblasts from eight different patients, carriers of mutations in the TAZ gene (suffering from Barth's syndrome).
The rate of proliferation was measured in a medium with a weak concentration of glucose (1 g/L; to force cells to use the OXPHOS system rather than glycolyse) in 384 well micro-titration plates (1200 cells/wells at T0) using the Sulforhodamine B (SRB) staining protocol at 24, 48, 72 or 96 hours after placing the cells with or without 12.15 nM of EBS.
The data are the average of 8 patients or 3 controls in triplicate, in 4 independent experiments.
The rate of proliferation was then measured under the same experimental conditions but with variable concentrations of ethaselen: The cells were analyzed 96 hours after treatment with increasing doses of ethaselen (from 150 pM to 26.1 μM). The bars represent the average of 4 replicates coming from 2 patients in 3 independent experiments.

Structure (SMILES) | respiratory growth (halo) of mutant taz1 (mutant yeast strain taz1) | concentration range improving respiratory growth/proliferation, lower limit [1] | concentration range improving respiratory growth/proliferation, upper limit [1] [µM]
O=C1c2ccccc2[Se](=O)N1c1ccccc1 (stereo not drawn) [ebselen oxide, 1-oxide-2-phenyl-1,2-benzisoselenazol-3(2H)-one] | activity comparable to ebselen |  | 
O=c1c2ccccc2[se]n1CCn1[se]c2ccccc2c1=O [ethasalen, Ethaselen] |  | about 1 nM | ≤ 3

— patent publication US20260000645A1, “USE OF EBSELEN OR ONE OF THE DERIVATIVES THEREOF TO TREAT MITOCHONDRIAL PATHOLOGIES OR DYSFUNCTIONS” (ASSOCIATION FRANCAISE CONTRE LES MYOPATHIES, priority 2022, published 2026)
